20 compounds from ChEMBL document CHEMBL3286130, “8-Substituted 2-alkynyl-N(9)-propargyladenines as A2A adenosine receptor antagonists” (Bioorg Med Chem, 2014) can be followed below.

Each structure is given as a SMILES string. Calls of active or inactive are those of the source. The rule behind the calls is not given here.

Test [1] addresses Adenosine receptor A2a (Rattus norvegicus, UniProt P30543). Briefly: Antagonist activity at adenosine A2A receptor in 5-HT-treated Wistar rat femoral vein assessed as inhibition of 2-octyn-1-yladenosine-induced vasodilation incubated for 10 mins prior to addition of 5-HT.
Test [2] deals with Mus musculus. In words: Anticataleptogenic activity in ddY mouse assessed as reduction in haloperidol-induced catelepsy at 3 mg/kg, po measured after 1 to 7 hrs. Further details: dose 3 mg/kg. Type of test: functional, organism-based.
The test system of test [3] is Mus musculus. Briefly: Anticataleptogenic activity in po dosed ddY mouse assessed as reduction in haloperidol-induced catelepsy measured after 5 hrs. Type of test: functional. The note with it: for minimal effective dose: read-out: MED.
Test [4] relates to Rattus norvegicus. In words: Antiparkinsonian activity in unilateral 6-hydroxydopamine-lesioned Sprague-Dawley rat assessed as potentiation of L-DOPA-induced turning behavior at 3 mg/kg, po measured for 15 mins. The class given is functional, organism-based. Further details: dose 3 mg/kg.
Test [5] deals with Rattus norvegicus. Briefly: Antiparkinsonian activity in unilateral 6-hydroxydopamine-lesioned Sprague-Dawley rat assessed as induction of stereotyped behavior at 3 mg/kg, po measured for 15 mins. The class given is functional, organism-based. Further details: dose 3 mg/kg.
Test [6] concerns the target Adenosine receptor A2a (Homo sapiens, UniProt P29274). In words: biochemical.
Description: Displacement of [3H]-CGS-21680 from human adenosine A2A receptor expressed in HEK293 cells after 90 mins
The target in test [7] is Adenosine receptor A2a (Rattus norvegicus) (UniProt P30543). Briefly: Potency index, ratio of istradefylline IC50 to compound IC50 for adenosine A2A receptor in 5-HT-treated Wistar rat femoral vein assessed as inhibition of 2-octyn-1-yladenosine-induced vasodilation.
Sequence of Adenosine receptor A2a (Rattus norvegicus) (P30543 whole entry): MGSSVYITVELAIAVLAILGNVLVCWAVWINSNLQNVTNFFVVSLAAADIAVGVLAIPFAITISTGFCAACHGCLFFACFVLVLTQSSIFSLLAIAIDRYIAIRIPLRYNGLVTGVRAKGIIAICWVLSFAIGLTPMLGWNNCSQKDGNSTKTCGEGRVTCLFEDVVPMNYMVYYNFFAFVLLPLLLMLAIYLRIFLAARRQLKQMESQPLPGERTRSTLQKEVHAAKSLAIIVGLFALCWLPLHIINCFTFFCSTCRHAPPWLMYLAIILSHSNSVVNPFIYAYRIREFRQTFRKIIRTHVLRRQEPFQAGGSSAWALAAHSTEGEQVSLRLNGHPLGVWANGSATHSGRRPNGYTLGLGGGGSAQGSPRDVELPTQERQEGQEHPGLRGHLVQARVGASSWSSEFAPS

Sequence of Adenosine receptor A2a (Rattus norvegicus, UniProt P30543) (P30543 whole entry): as above
Sequence of Adenosine receptor A2a (Homo sapiens, UniProt P29274) (P29274 whole entry): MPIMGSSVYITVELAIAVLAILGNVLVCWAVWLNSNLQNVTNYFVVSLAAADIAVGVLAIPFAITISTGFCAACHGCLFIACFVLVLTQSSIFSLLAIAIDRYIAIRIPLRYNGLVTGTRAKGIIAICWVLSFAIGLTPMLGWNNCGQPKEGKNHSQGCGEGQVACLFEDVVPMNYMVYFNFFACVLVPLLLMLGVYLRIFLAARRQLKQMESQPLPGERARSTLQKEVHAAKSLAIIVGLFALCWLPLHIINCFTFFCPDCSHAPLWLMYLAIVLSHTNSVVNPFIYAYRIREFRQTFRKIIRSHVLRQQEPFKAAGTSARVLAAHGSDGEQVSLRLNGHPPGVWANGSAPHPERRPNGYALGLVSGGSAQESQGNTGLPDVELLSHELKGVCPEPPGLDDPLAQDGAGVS

The term IC50 denotes the concentration at which inhibition is half-maximal. In the case of `C#CCn1c(Cl)nc2c(N)nc(C#CCCCCCC)nc21`, on Adenosine receptor A2a [1], the IC50 is 0.006 µM.

In the case of `CCCCCCC#Cc1nc(N)c2ncn(CCO)c2n1`, the concentration for half-maximal inhibition (IC50) on Adenosine receptor A2a [1] is more than 10 µM.

In the case of `C=CCn1cnc2c(N)nc(C#CCCCCCC)nc21`, the IC50 at Adenosine receptor A2a [1] is more than 10 µM.

As usually defined, the Ki is a dissociation constant, usually derived from enzyme kinetics or from competition with a known ligand. With `C#CCn1c(Br)nc2c(N)nc(C#CCCCCCC)nc21`, the 50% inhibitory concentration (IC50) on Adenosine receptor A2a [1] was 0.0051 µM. The result with Mus musculus [2] and in the test with Rattus norvegicus [4] was Active. For the same compound, the Activity entry in the test on Mus musculus [3] was “Dose-dependent effect”. Also, in the test on Mus musculus [3], the minimal effective dose was 3 mg/kg. Also, the result with Rattus norvegicus [5] was inactive. On Adenosine receptor A2a [6], this compound gave a Ki of 0.00056 µM.

As for `CCCCCCC#Cc1nc(N)c2ncn(CC)c2n1`, at Adenosine receptor A2a [1], the IC50 came to 6.7 µM.

On to `C#CCn1c(Br)nc2c(N)nc(C#CC3(O)CCCCC3)nc21`, for which, on Adenosine receptor A2a [1], the 50% inhibitory concentration (IC50) is 0.0005 µM.

`C#CCn1cnc2c(N)nc(C#CCCCCCC)nc21`: the IC50 on Adenosine receptor A2a [1] is 0.2 µM.

For the compound `C#CCn1c(-c2ccco2)nc2c(N)nc(C#CC3(O)CCCCC3)nc21`, on Adenosine receptor A2a [1], the IC50 came to 0.0004 µM. For the same compound, the Ratio IC50 in test [7] was 570.

Take `C#CCn1c(-c2ccccc2)nc2c(N)nc(C#CCCCCCC)nc21`: the 50% inhibitory concentration (IC50) on Adenosine receptor A2a [1] is 0.0755 µM.

Regarding `CCCCCCC#Cc1nc(N)c2ncn(C)c2n1`, at Adenosine receptor A2a [1], the half-maximal inhibitory concentration (IC50) is 9 µM.

As for `CCCCCCC#Cc1nc(N)c2ncn(CC#N)c2n1`, the 50% inhibitory concentration (IC50) on Adenosine receptor A2a [1] was more than 10 µM.

Turning to `CCCCCCC#Cc1nc(N)c2ncn(Cc3ccccc3)c2n1`, the IC50 on Adenosine receptor A2a [1] is more than 10 µM.

For `C#CCn1c(-n2nccn2)nc2c(N)nc(C#CCCCCCC)nc21`, the IC50 at Adenosine receptor A2a [1] worked out at 0.0019 µM.

In the case of `C#CCn1c(-c2ccco2)nc2c(N)nc(C#CCCCCCC)nc21`, the 50% inhibitory concentration (IC50) at Adenosine receptor A2a [1] was 0.0036 µM.

Consider `CCCCCCC#Cc1nc(N)c2ncn(C3CCCC3)c2n1`, for which the half-maximal inhibitory concentration (IC50) at Adenosine receptor A2a [1] was more than 10 µM.

On to `C#CCn1cnc2c(N)nc(C#CC3(O)CCCCC3)nc21`, for which the IC50 at Adenosine receptor A2a [1] stood at 0.0973 µM.

Turning to `CCn1c(=O)c2c(nc(/C=C/c3ccc(OC)c(OC)c3)n2C)n(CC)c1=O` [ISTRADEFYLLINE], in the test on Mus musculus [2], the result was Active. Also, in the test with Mus musculus [3], the Activity result is “Dose-dependent effect” and the minimal effective dose worked out at 3 mg/kg.

As for `CCCCCCC#Cc1nc(N)c2ncn(CCC)c2n1`, the IC50 at Adenosine receptor A2a [1] is more than 10 µM.

`C#CCn1c(Cl)nc2c(N)nc(C#CC3(O)CCCCC3)nc21`: the IC50 at Adenosine receptor A2a [1] came out at 0.003 µM.

Consider `C#CCn1c(-c2cccc(F)c2)nc2c(N)nc(C#CCCCCCC)nc21`, for which the IC50 at Adenosine receptor A2a [1] was 0.0228 µM.
